Assay results reported in patent publication US4440932A, “7β-Arylalkyl-7α-methyl-6-oxo or 6α-hydroxy-3-methoxy or 3-hydroxy-4,5α-epoxy-17-methyl or 17-cycloalkyl-methylmorphinans” (Miles Laboratories, Inc., priority 1982, dated 1984).
Several values for one entry are separate records, joined by “and”; a condition that tells them apart may be missing. Equal entries are not always repeated.

Tested on: mice
Test: acetic acid induced writhing test (analgesic effects in mice, subcutaneous)
Type: in vivo, mice (male CD-1)
Conditions: Mus musculus, sc, acetic acid i.p. 15 min post drug, writhes counted over 20 min, read-out: ED50 (dose required to reduce the number of writhes by 50%)
Experimental: Analgesic effects of the test compounds were determined in mice by use of the acetic acid induced writhing test described by B. A. Whittle, Brit. J. Pharmacol., 22:246 (1964). In this test, at least 3 groups of 5 male CD-1 mice each were given subcutaneous doses of the test drug dissolved in distilled water. In all cases, 0.4 ml of a 0.5% v/v acetic acid in distilled water solution was administered intraperitoneally 15 min. post drug. The number of writhes in a 20 min. interval beginning 5 min. after the acetic acid injection were determined and compared with the number of writhes in a control group which had received only acetic acid.
Percent inhibition of writhing was calculated as: [formula]
The ED50 dose, i.e., the dose required to reduce the number of writhes by 50%, was determined graphically from a plot of % inhibition as a probit verus log dose. Confidence limits of 95% were calculated on the basis of those results falling in the range 16-84% inhibition. See Lichtfield, J. T. and Wilcoxon, F., J. Pharmacol. Exp. Ther., 96, 99-113 (1949).

| SMILES | ED50 |
| --- | --- |
| C[C@@]1(CCc2ccccc2)C[C@H]2[C@H]3Cc4ccc(O)c5c4[C@@]2(CCN3CC2CCC2)[C@@H](O5)C1=O [DBd] | 0.04 µmol/kg and 0.021 mg/kg |
| COc1ccc2c3c1O[C@H]1C(=O)[C@](C)(CCCCc4ccccc4)C[C@H]4[C@@H](C2)N(CC2CC2)CC[C@]314 [CPf] | 2 µmol/kg and 1.1 mg/kg |
| C[C@@]1(CCCCc2ccccc2)C[C@H]2[C@H]3Cc4ccc(O)c5c4[C@@]2(CCN3CC2CC2)[C@@H](O5)C1=O [DPf] | 0.11 µmol/kg and 0.07 mg/kg |
| COc1ccc2c3c1O[C@H]1C(=O)[C@](C)(CCc4ccccc4)C[C@H]4[C@@H](C2)N(CC2CCC2)CC[C@]314 [CBd] | 0.01 µmol/kg and 0.011 mg/kg |
| COc1ccc2c3c1O[C@H]1[C@@H](O)[C@](C)(CCCCc4ccccc4)C[C@H]4[C@@H](C2)N(CC2CC2)CC[C@@]341 [BPf] | 0.5 µmol/kg and 0.26 mg/kg |
| COc1ccc2c3c1O[C@H]1[C@@H](O)[C@](C)(CCCCc4ccccc4)C[C@H]4[C@@H](C2)N(CC2CCC2)CC[C@@]341 [BBf] | 11.3 µmol/kg and 6.1 mg/kg |
| COc1ccc2c3c1O[C@H]1[C@@H](O)[C@](C)(CCCCc4ccccc4)C[C@H]4[C@@H](C2)N(C)CC[C@@]341 [BMf, 7α,17-Dimethyl-4,5α-epoxy-3-methoxy-7β-(4-phenylbutyl)morphinan-6α-ol] | 0.049 µmol/kg and 0.023 mg/kg |
| COc1ccc2c3c1O[C@H]1C(=O)[C@](C)(CCCCc4ccccc4)C[C@H]4[C@@H](C2)N(C)CC[C@]314 [CMf, 7α,17-Dimethyl-4,5α-epoxy-3-methoxy-7β-(4-phenylbutyl)morphinan-6-one] | 0.023 µmol/kg and 0.011 mg/kg |
| COc1ccc2c3c1O[C@H]1[C@@H](O)[C@](C)(CCc4ccccc4)C[C@H]4[C@@H](C2)N(CC2CCC2)CC[C@@]341 [BBd] | 1 µmol/kg and 0.51 mg/kg |
| C[C@@]1(CCCCc2ccccc2)C[C@H]2[C@H]3Cc4ccc(O)c5c4[C@@]2(CCN3CC2CCC2)[C@@H](O5)C1=O [DBf] | 0.17 µmol/kg and 0.08 mg/kg |
| COc1ccc2c3c1O[C@H]1C(=O)[C@](C)(CCCCc4ccccc4)C[C@H]4[C@@H](C2)N(CC2CCC2)CC[C@]314 [CBf] | 5.6 µmol/kg and 2.8 mg/kg |
| CN1CC[C@]23c4c5ccc(O)c4O[C@H]2C(=O)[C@](C)(CCCCc2ccccc2)C[C@H]3[C@H]1C5 [DMf, 7α,17-Dimethyl-4,5α-epoxy-3-hydroxy-7β-(4-phenylbutyl)morphinan-6-one] | 0.01 µmol/kg and 0.0048 mg/kg |
